Laboratory results: US20250345299A1, “COMBINATION AND COMPOSITION COMPRISING NICOTINIC ACID OR DERIVATIVE THEREOF AND FATTY ACID OR DERIVATIVE THEREOF” (T OMEGA AS, priority 2022, published 2025)

Key:
Format in all cases: in vivo, male Wistar rats, Rattus norvegicus
[1] = Body and adipose tissue weights in rats fed supplemented high-fat diet
Protocol: (§1) The animal study was conducted according to the Guidelines for the Care and Use of Experimental Animals, and in accordance with the Norwegian legislation and regulations governing experiments using live animals. All efforts were made to optimize the animal environment and minimize suffering. […] Upon arrival the rats were randomized using Research Randomizer, labeled and placed in open cages, two in each cage, where they were allowed to acclimatize to their surroundings for one week. During the acclimatization and experiment period, the rats had unrestricted access to tap water, but restricted access to chow to obtain a constant dose through the experiment.
(§2) The rats were kept in a 12 hours light/dark cycle at a constant temperature (22±2° C.) and a relative humidity of 55% (±5%). Upon start of the experiment, the rats were block randomized to their respective interventions. All rats were divided into seven groups. The first group of animals (control group) was fed a high-fat diet (HF) with 25% by weight fat, consisting of 23% by weight lard and 2% by weight soybean oil, referred to as “HF”. The second group was fed a high-fat diet (HF) supplemented with tetradecylthioacetic acid (TTA) (250 mg/day/kg body weight), referred to as “HF+TTA”. The third group was fed a high-fat diet (HF) supplemented with nicotineamide riboside (NR) (100 mg/day/kg body weight), referred to as “HF+NR”. The fourth group was fed a high-fat diet (HF) supplemented with nicotinic acid riboside (NAR) (40 mg/day/kg body weight), referred to as “HF+NAR”. The fifth group was fed a high-fat diet (HF) supplemented with both tetradecylthioacetic acid (TTA) (250 mg/day/kg body weight) and nicotineamide riboside (NR) (100 mg/day/kg body weight), referred to as “HF+TTA+NR”. The sixth group was fed a high-fed diet (HF) supplemented with both tetradecylthioacetic acid (TTA) (250 mg/day/kg body weight) and nicotinic acid riboside (NAR) (40 mg/day/kg body weight), referred to as “HF+TTA+NAR”. The seventh group was fed a low-fed diet, referred to as “LF”.
(§3) All animals were weighed daily and feed intake was determined weekly. The animal experiment was run for 12 weeks. At sacrifice, rats were anaesthetized by inhalation of 2-5% isoflurane (Schering-Plough, Kent, UK), the abdomen opened along the midline, and exsanguination was performed using cardiac puncture. EDTA-blood was collected and immediately chilled on ice. The samples were centrifuged and plasma was stored at −80° C. prior to analysis. Different tissues were collected, weighed and were immediately snap-frozen in liquid nitrogen and stored at −80° C. until further analysis.

[2] = Analysis of plasma compounds in rats fed high-fat diet supplemented with TTA, NR, NAR or combinations; set-up: Quinolinic acid / Nicotinamide / N1-Methylnicotinamide / Pyridoxal 5′-phosphate / Pyridoxal / Thiamine monophosphate: unit not given here; settings: high-fat diet + supplement, 12 weeks
Protocol: This example illustrates an animal study using male Wistar rats which were fed NR, NAR, TTA and combinations thereof.
The animal study was conducted according to the Guidelines for the Care and Use of Experimental Animals, and in accordance with the Norwegian legislation and regulations governing experiments using live animals. All efforts were made to optimize the animal environment and minimize suffering. Eight weeks-old old male Wistar rats, Rattus norvegicus, weighing […], were purchased from Taconic (Ejby, Denmark). Upon arrival the rats were randomized using Research Randomizer, labeled and placed in open cages, two in each cage, where they were allowed to acclimatize to their surroundings for one week. During the acclimatization and experiment period, the rats had unrestricted access to tap water, but restricted access to chow to obtain a constant dose through the experiment.
as §2, §3

[3] = Plasma lipids and total fatty acids in rats fed supplemented high-fat diet; settings: high-fat diet + supplement, 12 weeks
Protocol: as §1, §2, §3

[4] = Liver lipids in rats fed supplemented high-fat diet; settings: high-fat diet + supplement, 12 weeks
Protocol: as §1
The rats were kept in a 12 hours light/dark cycle at a constant temperature (22±2° C.) and a relative humidity of 55% (±5%). Upon start of the experiment, the rats were block randomized to their respective interventions. All rats were divided into seven groups. The first group of animals (control group) was fed a high-fat diet (HF) with 25% by weight fat, consisting of 23% by weight lard and 2% by weight soybean oil, referred to as “HF”. The second group was fed a high-fat diet (HF) supplemented with tetradecylthioacetic acid (TTA) (250 mg/day/kg body weight), referred to as “HF+TTA”. […]
All animals were weighed daily and feed intake was determined weekly. […]

[5] = high-fat diet + supplement, 12 weeks

With nicotineamide riboside [HF + NR] the “Brown adipose tissue weight” value [1, 5] was 0.308 g, the “White adipose tissue weight” value [1, 5] was 34.52 g and the Body weight end ([1]; high-fat diet + supplement, end of 12 weeks) was 555.60 g. The Body weight start ([1]; start of experiment (baseline)) was 409.60 g, the 2-Aminoadipic acid [2] was 1.33 µM and the 3-Hydroxyanthranilic acid [2] was 5.4 µM. It also gave a 3-Hydroxybutyrate [2] of 287 µM, an Acetoacetate [2] of 72.9 µM and a Glycine [2] of 221 µM. For the same compound, the Methylmalonic acid [2] was 3.37 µM, the N1-Methylnicotinamide [2] was 3616 and the Nicotinamide [2] was 5870. The Nicotinic acid [2] was 12.38 µM, the Pyridoxal [2] was 369.8 and the “Pyridoxal 5′-phosphate” value [2] was 729.0. The Quinolinic acid [2] was 533, the HDL/LDL ratio [3] was 2.117 and the “Plasma lipids: Cholesterol” value [3] was 2.000 mmol/L. The “Plasma lipids: High density lipoprotein” value [3] was 0.938 mmol/L, the “Plasma lipids: Low density lipoprotein” value [3] was 0.450 mmol/L and the “Plasma lipids: Triglycerides” value [3] was 2.194 mmol/L. The “Total fatty acids, plasma” value [3] was 3049 µg/mL, the “Liver lipids: Cholesterol” value [4] was 39.84 µmol/g and the “Liver lipids: Triglycerides” value [4] was 75.22 µmol/g.
In the case of O=C([O-])c1ccc[n+]([C@@H]2O[C@H](CO)[C@@H](O)[C@H]2O)c1 [HF + NAR, nicotinic acid riboside], the 2-Aminoadipic acid [2] is reported as 1.34 µM, the 3-Hydroxyanthranilic acid [2] is reported as 7.8 µM and the Folic acid [2] is reported as 0.70 µM. The Methylmalonic acid [2] was 2.35 µM, the N1-Methylnicotinamide [2] was 2414 and the Nicotinamide [2] was 4308. For the same compound, the Nicotinic acid [2] was 11.95 µM, the Pyridoxal [2] was 384.1 and the “Pyridoxal 5′-phosphate” value [2] was 598.3. The Serine [2] was 325 µM, the Thiamine monophosphate [2] was 350.0 and the Trigonelline [2] was 0.084 µM.
